Measured values as given in BigSolDB 2.1.

Cc1ccc(N)c([N+](=O)[O-])c1
Details | solubility (mole fraction)
in 1,2-dichloroethane, 278.15 K | 0.0289
in 1,2-dichloroethane, 280.65 K | 0.0326
in 1,2-dichloroethane, 283.15 K | 0.0355
in 1,2-dichloroethane, 285.65 K | 0.0397
in 1,2-dichloroethane, 288.15 K | 0.0432
in 1,2-dichloroethane, 290.65 K | 0.0468
in 1,2-dichloroethane, 293.15 K | 0.0506
in 1,2-dichloroethane, 295.65 K | 0.0548
in 1,2-dichloroethane, 298.15 K | 0.0594
in 1,2-dichloroethane, 300.65 K | 0.0642
in 1,2-dichloroethane, 303.15 K | 0.0692
in 1,2-dichloroethane, 305.65 K | 0.0747
in 1,2-dichloroethane, 308.15 K | 0.0806
in 1,2-dichloroethane, 310.65 K | 0.087
in 1,2-dichloroethane, 313.15 K | 0.0937
in 1,2-dichloroethane, 315.65 K | 0.101
in 1,2-dichloroethane, 318.15 K | 0.109
in 1,4-dioxane, 283.15 K | 0.0404
in 1,4-dioxane, 285.65 K | 0.0452
in 1,4-dioxane, 288.15 K | 0.0507
in 1,4-dioxane, 290.65 K | 0.0568
in 1,4-dioxane, 293.15 K | 0.0637
in 1,4-dioxane, 295.65 K | 0.0712
in 1,4-dioxane, 298.15 K | 0.0794
in 1,4-dioxane, 300.65 K | 0.0883
in 1,4-dioxane, 303.15 K | 0.0986
in 1,4-dioxane, 305.65 K | 0.11
in 1,4-dioxane, 308.15 K | 0.121
in 1,4-dioxane, 310.65 K | 0.134
in 1,4-dioxane, 313.15 K | 0.149
in 2-butanone, 278.15 K | 0.12
in 2-butanone, 280.65 K | 0.128
in 2-butanone, 283.15 K | 0.136
in 2-butanone, 285.65 K | 0.144
in 2-butanone, 288.15 K | 0.153
in 2-butanone, 290.65 K | 0.162
in 2-butanone, 293.15 K | 0.171
in 2-butanone, 295.65 K | 0.181
in 2-butanone, 298.15 K | 0.191
in 2-butanone, 300.65 K | 0.202
in 2-butanone, 303.15 K | 0.213
in 2-butanone, 305.65 K | 0.224
in 2-butanone, 308.15 K | 0.236
in 2-butanone, 310.65 K | 0.249
in 2-butanone, 313.15 K | 0.261
in DMF, 278.15 K | 0.0984
in DMF, 280.65 K | 0.105
in DMF, 283.15 K | 0.112
in DMF, 285.65 K | 0.122
in DMF, 288.15 K | 0.131
in DMF, 290.65 K | 0.14
in DMF, 293.15 K | 0.15
in DMF, 295.65 K | 0.161
in DMF, 298.15 K | 0.171
in DMF, 300.65 K | 0.182
in DMF, 303.15 K | 0.194
in DMF, 305.65 K | 0.206
in DMF, 308.15 K | 0.219
in DMF, 310.65 K | 0.232
in DMF, 313.15 K | 0.247
in acetonitrile, 278.15 K | 0.0274
in acetonitrile, 280.65 K | 0.0302
in acetonitrile, 283.15 K | 0.0334
in acetonitrile, 285.65 K | 0.0369
in acetonitrile, 288.15 K | 0.0406
in acetonitrile, 290.65 K | 0.0447
in acetonitrile, 293.15 K | 0.0493
in acetonitrile, 295.65 K | 0.0543
in acetonitrile, 298.15 K | 0.0602
in acetonitrile, 300.65 K | 0.0657
in acetonitrile, 303.15 K | 0.0721
in acetonitrile, 305.65 K | 0.0794
in acetonitrile, 308.15 K | 0.0872
in acetonitrile, 310.65 K | 0.0955
in acetonitrile, 313.15 K | 0.105
in chlorobenzene, 278.15 K | 0.016
in chlorobenzene, 280.65 K | 0.0174
in chlorobenzene, 283.15 K | 0.0194
in chlorobenzene, 285.65 K | 0.0216
in chlorobenzene, 288.15 K | 0.0239
in chlorobenzene, 290.65 K | 0.0262
in chlorobenzene, 293.15 K | 0.0288
in chlorobenzene, 295.65 K | 0.0316
in chlorobenzene, 298.15 K | 0.0349
in chlorobenzene, 300.65 K | 0.0383
in chlorobenzene, 303.15 K | 0.0421
in chlorobenzene, 305.65 K | 0.0463
in chlorobenzene, 308.15 K | 0.0507
in chlorobenzene, 310.65 K | 0.0556
in chlorobenzene, 313.15 K | 0.0611
in chlorobenzene, 315.65 K | 0.0671
in chlorobenzene, 318.15 K | 0.0738
in ethanol, 278.15 K | 0.00983
in ethanol, 280.65 K | 0.0107
in ethanol, 283.15 K | 0.0118
in ethanol, 285.65 K | 0.0128
in ethanol, 288.15 K | 0.0139
in ethanol, 290.65 K | 0.0152
in ethanol, 293.15 K | 0.0165
in ethanol, 295.65 K | 0.0179
in ethanol, 298.15 K | 0.0194
in ethanol, 300.65 K | 0.021
in ethanol, 303.15 K | 0.0228
in ethanol, 305.65 K | 0.0246
in ethanol, 308.15 K | 0.0266
in ethanol, 310.65 K | 0.0289
in ethanol, 313.15 K | 0.0312
in ethyl acetate, 278.15 K | 0.076
in ethyl acetate, 280.65 K | 0.0816
in ethyl acetate, 283.15 K | 0.087
in ethyl acetate, 285.65 K | 0.0933
in ethyl acetate, 288.15 K | 0.0996
in ethyl acetate, 290.65 K | 0.106
in ethyl acetate, 293.15 K | 0.113
in ethyl acetate, 295.65 K | 0.12
in ethyl acetate, 298.15 K | 0.128
in ethyl acetate, 300.65 K | 0.136
in ethyl acetate, 303.15 K | 0.144
in ethyl acetate, 305.65 K | 0.153
in ethyl acetate, 308.15 K | 0.162
in ethyl acetate, 310.65 K | 0.172
in ethyl acetate, 313.15 K | 0.182
in isopropanol, 278.15 K | 0.0102
in isopropanol, 280.65 K | 0.0112
in isopropanol, 283.15 K | 0.0122
in isopropanol, 285.65 K | 0.0134
in isopropanol, 288.15 K | 0.0146
in isopropanol, 290.65 K | 0.0161
in isopropanol, 293.15 K | 0.0176
in isopropanol, 295.65 K | 0.0192
in isopropanol, 298.15 K | 0.0209
in isopropanol, 300.65 K | 0.0227
in isopropanol, 303.15 K | 0.0248
in isopropanol, 305.65 K | 0.0268
in isopropanol, 308.15 K | 0.0293
in isopropanol, 310.65 K | 0.0317
in isopropanol, 313.15 K | 0.0346
in methanol, 278.15 K | 0.00863
in methanol, 280.65 K | 0.00933
in methanol, 283.15 K | 0.0104
in methanol, 285.65 K | 0.0112
in methanol, 288.15 K | 0.0121
in methanol, 290.65 K | 0.0133
in methanol, 293.15 K | 0.0144
in methanol, 295.65 K | 0.0156
in methanol, 298.15 K | 0.0169
in methanol, 300.65 K | 0.0182
in methanol, 303.15 K | 0.0198
in methanol, 305.65 K | 0.0213
in methanol, 308.15 K | 0.023
in methanol, 313.15 K | 0.0268
in n-butanol, 278.15 K | 0.0126
in n-butanol, 280.65 K | 0.0138
in n-butanol, 283.15 K | 0.0152
in n-butanol, 285.65 K | 0.0166
in n-butanol, 288.15 K | 0.018
in n-butanol, 290.65 K | 0.0197
in n-butanol, 293.15 K | 0.0214
in n-butanol, 295.65 K | 0.0232
in n-butanol, 298.15 K | 0.0253
in n-butanol, 300.65 K | 0.0273
in n-butanol, 303.15 K | 0.0297
in n-butanol, 305.65 K | 0.0321
in n-butanol, 308.15 K | 0.0348
in n-butanol, 310.65 K | 0.0376
in n-butanol, 313.15 K | 0.0406
in n-propanol, 278.15 K | 0.0111
in n-propanol, 280.65 K | 0.012
in n-propanol, 283.15 K | 0.0132
in n-propanol, 285.65 K | 0.0143
in n-propanol, 288.15 K | 0.0157
in n-propanol, 290.65 K | 0.017
in n-propanol, 293.15 K | 0.0185
in n-propanol, 295.65 K | 0.0202
in n-propanol, 298.15 K | 0.0218
in n-propanol, 300.65 K | 0.0237
in n-propanol, 303.15 K | 0.0257
in n-propanol, 305.65 K | 0.0278
in n-propanol, 310.65 K | 0.0326
in n-propanol, 313.15 K | 0.0352
in tetrachloromethane, 278.15 K | 0.00242
in tetrachloromethane, 280.65 K | 0.00265
in tetrachloromethane, 283.15 K | 0.00297
in tetrachloromethane, 285.65 K | 0.00333
in tetrachloromethane, 288.15 K | 0.00371
in tetrachloromethane, 290.65 K | 0.00406
in tetrachloromethane, 293.15 K | 0.00452
in tetrachloromethane, 295.65 K | 0.00497
in tetrachloromethane, 298.15 K | 0.0055
in tetrachloromethane, 300.65 K | 0.00602
in tetrachloromethane, 303.15 K | 0.00662
in tetrachloromethane, 305.65 K | 0.00721
in tetrachloromethane, 308.15 K | 0.00797
in tetrachloromethane, 310.65 K | 0.00876
in tetrachloromethane, 313.15 K | 0.00963
in tetrachloromethane, 315.65 K | 0.0105
in tetrachloromethane, 318.15 K | 0.0117
in toluene, 278.15 K | 0.0118
in toluene, 280.65 K | 0.0131
in toluene, 283.15 K | 0.0146
in toluene, 285.65 K | 0.016
in toluene, 288.15 K | 0.0176
in toluene, 290.65 K | 0.0194
in toluene, 293.15 K | 0.0215
in toluene, 295.65 K | 0.0236
in toluene, 298.15 K | 0.0259
in toluene, 300.65 K | 0.0284
in toluene, 303.15 K | 0.0312
in toluene, 305.65 K | 0.0343
in toluene, 308.15 K | 0.0375
in toluene, 310.65 K | 0.0411
in toluene, 313.15 K | 0.045
